Test results as given in patent US7648979B2, “5-amido-(1H-indol-2-yl)-piperazin-1-yl-methanone derivatives” (Hoffmann-La Roche Inc., priority 2007, dated 2010).

Target: histamine 3 receptor (H3R) (Homo sapiens, UniProt Q9Y5N1)
Test: Binding Assay with 3H-(R)α-methylhistamine (competition binding, membranes of human H3R-CHO cell line)
Details: competition with 3H(R)α-methylhistamine (1 nM), Ki calculated from IC50 by Cheng-Prusoff
Experimental: Binding Assay with ^3H-(R)α-methylhistamine
Saturation binding experiments were performed using HR3-CHO membranes prepared as described in Takahashi, K, Tokita, S., Kotani, H. (2003) J. Pharmacol. Exp. Therapeutics 307, 213-218.
An appropriate amount of membrane (60 to 80 μg protein/well) was incubated with increasing concentrations of ^3H(R)α-Methylhistamine di-hydrochloride (0.10 to 10 nM). Non specific binding was determined using a 200 fold excess of cold (R)α-Methylhistamine dihydrobromide (500 nM final concentration). The incubation was carried out at room temperature (in deep-well plates shaking for three hours). The final volume in each well was 250 μl. The incubation was followed by rapid filtration on GF/B filters (pre-soaked with 100 μl of 0.5% PEI in Tris 50 mM shaking at 200 rpm for two hours). The filtration was made using a cell-harvester and the filter plates were then washed five times with ice cold washing buffer containing 0.5 M NaCl. After harvesting, the plates were dried at 55° C. for 60 min, then we added scintillation fluid (Microscint 40, 40 microl in each well) and the amount of radioactivity on the filter was determined in Packard top-counter after shaking the plates for two hours at 200 rpm at room temperature.
Binding Buffer: 50 mM Tris-HCl pH 7.4 and 5 mM MgCl2×6H2O pH 7.4. Washing Buffer: 50 mM Tris-HCl pH 7.4 and 5 mM MgCl2×6H2O and 0.5 M NaCl pH 7.4.
Indirect measurement of affinity of H3R inverse agonists: twelve increasing concentrations (ranging from 10 μM to 0.3 nM) of the selected compounds were always tested in competition binding experiments using membrane of the human H3R—CHO cell line. […]
All compounds were tested at a single concentration in duplicate. […] Ki's were calculated from IC50 based on Cheng-Prusoff equation (Cheng, Y, Prusoff, W H (1973) Biochem Pharmacol 22, 3099-3108): Ki=IC50/[1+D/Kd] wherein D is the concentration of the radioligand and Kd is the binding constant for the radioligand binding to the receptor under the conditions used in the competition experiment.

Sequence of histamine 3 receptor (H3R) (Q9Y5N1 whole entry): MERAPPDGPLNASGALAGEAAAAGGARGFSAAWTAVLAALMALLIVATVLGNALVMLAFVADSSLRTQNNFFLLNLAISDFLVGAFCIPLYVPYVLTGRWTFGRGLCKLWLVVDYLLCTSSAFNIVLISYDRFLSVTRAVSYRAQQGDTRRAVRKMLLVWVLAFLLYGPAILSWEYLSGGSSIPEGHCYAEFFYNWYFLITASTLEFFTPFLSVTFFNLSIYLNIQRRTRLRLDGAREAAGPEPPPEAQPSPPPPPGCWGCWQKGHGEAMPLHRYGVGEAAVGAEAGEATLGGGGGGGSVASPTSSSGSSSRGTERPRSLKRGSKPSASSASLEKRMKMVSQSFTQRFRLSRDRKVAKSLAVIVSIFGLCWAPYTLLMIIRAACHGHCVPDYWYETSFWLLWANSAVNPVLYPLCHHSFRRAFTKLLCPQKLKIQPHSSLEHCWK

Row | Structure (SMILES) | Ki
1 | CC(C)N1CCN(C(=O)c2ccc3c(c2)cc(C(=O)N2CCN(S(C)(=O)=O)CC2)n3-c2ccnc(Cl)c2)CC1 [Example 7, [1-(2-Chloro-pyridin-4-yl)-5-(4-isopropyl-piperazine-1-carbonyl)-1H-indol-2-yl]-(4-methanesulfonyl-piperazin-1-yl)-methanone] | 11.7 nM
2 | CC(C)N1CCN(C(=O)c2ccc3c(c2)cc(C(=O)N2CCN(S(=O)(=O)c4ccccc4)CC2)n3-c2ccnc(Cl)c2)CC1 [Example 17, (4-Benzenesulfonyl-piperazin-1-yl)-[1-(2-chloro-pyridin-4-yl)-5-(4-isopropyl-piperazine-1-carbonyl)-1H-indol-2-yl]-methanone] | 5.7 nM
3 | CC(C)N1CCN(C(=O)c2ccc3c(c2)cc(C(=O)N2CCN(C(=O)N4CCCCC4)CC2)n3-c2ccnc(Cl)c2)CC1 [Example 19, [1-(2-Chloro-pyridin-4-yl)-5-(4-isopropyl-piperazine-1-carbonyl)-1H-indol-2-yl]-[4-(piperidine-1-carbonyl)-piperazin-1-yl]-methanone] | 7.5 nM
